Experimental data: patent US9079866B2, “Flap modulators” (JANSSEN PHARMACEUTICA NV, priority 2013, dated 2015)

Experiments:
[1] = target: human FLAP (Homo sapiens (Human), UniProt P20292); assay: FLAP binding assay (HTRF format); settings: wild type FLAP, HTRF format
In short: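 Samples were run in duplicate on each of two assay plates, the results were averaged, and the signal was expressed as an HTRF ratio.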

[2] = system: leukotriene pathway in human whole blood (LTB4 levels); assay: Human whole blood assay (A23187-stimulated LTB4); type: cell-based; settings: Homo sapiens, human whole blood diluted 1:1, A23187-stimulated; read-out: LTB4 IC50 1:1
In short: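 Heparinised human whole blood diluted 1:1 in RPMI, pre-incubated 15 min at 37° Celsius with compound, then stimulated with A23187 (7 μg/mL) for 30 min at 37° Celsius. Plasma LTB4 measured by immunoassay kit; IC50 from 4-parameter fit; single replicate per plate, at least one healthy donor.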

Chain of human FLAP (P20292 whole entry): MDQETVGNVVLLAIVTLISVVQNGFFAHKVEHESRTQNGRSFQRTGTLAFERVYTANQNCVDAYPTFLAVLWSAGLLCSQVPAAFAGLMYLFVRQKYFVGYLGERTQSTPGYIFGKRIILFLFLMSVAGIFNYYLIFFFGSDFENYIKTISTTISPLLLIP

Row | SMILES | Ki [1] | IC50 [2]
1 | CCN(CC)C(=O)c1ccccc1-c1ccc(-c2cnc(N)cn2)c(F)c1 [Example 503, 4′-(5-Aminopyrazin-2-yl)-N,N-diethyl-3′-fluorobiphenyl-2-carboxamide] | 14 nM | 92 nM
2 | C[C@H](NC(=O)c1ccccc1-c1ccc(-c2cnc(N)cn2)c(F)c1)C(F)(F)F [Example 505, 4′-(5-Aminopyrazin-2-yl)-3′-fluoro-N-[(1S)-2,2,2-trifluoro-1-methylethyl]biphenyl-2-carboxamide] | 18 nM | 71 nM
3 | Nc1cnc(-c2ccc(-c3ccccc3C(=O)N3CCS(=O)(=O)CC3)cc2F)cn1 [Example 509, 5-{2′-[(1,1-Dioxidothiomorpholin-4-yl)carbonyl]-3-fluorobiphenyl-4-yl}pyrazin-2-amine] | 147 nM | 93 nM
4 | C[C@@H](NC(=O)c1ccccc1-c1ccc(-c2cnc(N)cn2)c(F)c1)C(F)(F)F [Example 511, 4′-(5-Aminopyrazin-2-yl)-3′-fluoro-N-[(1R)-2,2,2-trifluoro-1-methylethyl]biphenyl-2-carboxamide] | 213 nM | 323 nM
5 | C[C@H](CO)NC(=O)c1ccccc1-c1ccc(-c2cnc(N)cn2)c(F)c1 [Example 512, 4′-(5-Aminopyrazin-2-yl)-3′-fluoro-N-[(1R)-2-hydroxy-1-methylethyl]biphenyl-2-carboxamide] | 443 nM | 470 nM
6 | Nc1cnc(-c2ccc(-c3ccccc3C(=O)N3CCC(O)CC3)cc2F)cn1 [Example 514, 1-{[4′-(5-Aminopyrazin-2-yl)-3′-fluorobiphenyl-2-yl]carbonyl}piperidin-4-ol] | 132 nM | 148 nM
7 | Nc1cnc(-c2ccc(-c3ccc(C(F)(F)F)cc3C(=O)N3CCOCC3)cc2F)cn1 [Example 521, 5-[3-Fluoro-2′-(morpholin-4-ylcarbonyl)-4′-(trifluoromethyl)biphenyl-4-yl]pyrazin-2-amine] | 5 nM | 13 nM
8 | Nc1ncc(-c2ccc(-c3ccc(C(F)(F)F)cc3C(=O)N3CCOCC3)cc2F)cn1 [Example 522, 5-[3-Fluoro-2′-(morpholin-4-ylcarbonyl)-4′-(trifluoromethyl)biphenyl-4-yl]pyrimidin-2-amine] | 348 nM | 393 nM
9 | Nc1nccc(Oc2ccccc2-c2ccc(-c3cnc4[nH]ccc4c3)c(F)c2)n1 [Example 523, 4-{[3′-Fluoro-4′-(1H-pyrrolo[2,3-b]pyridin-5-yl)biphenyl-2-yl]oxy}pyrimidin-2-amine] | 1 nM | 25 nM
10 | Nc1ccnc(Oc2ccccc2-c2ccc(-c3cnc4[nH]ccc4c3)c(F)c2)n1 [Example 524, 2-{[3′-Fluoro-4′-(1H-pyrrolo[2,3-b]pyridin-5-yl)biphenyl-2-yl]oxy}pyrimidin-4-amine] | 1 nM | 18 nM
11 | Fc1cc(-c2ccccc2Oc2ncccn2)ccc1-c1cnc2[nH]ccc2c1 [Example 525, 5-[3-Fluoro-2′-(pyrimidin-2-yloxy)biphenyl-4-yl]-1H-pyrrolo[2,3-b]pyridine] | 3 nM | 36 nM
12 | Nc1ncc(-c2ccc(-c3ccccc3Oc3ncccn3)cc2F)cn1 [Example 527, 5-[3-Fluoro-2′-(pyrimidin-2-yloxy)biphenyl-4-yl]pyrimidin-2-amine] | 74 nM | 183 nM
13 | Nc1cnc(-c2ccc(-c3ccccc3Oc3nccc(N)n3)cc2F)cn1 [Example 528, 2-{[4′-(5-Aminopyrazin-2-yl)-3′-fluorobiphenyl-2-yl]oxy}pyrimidin-4-amine] | 5 nM | 34 nM
14 | Nc1ccnc(Oc2ccccc2-c2ccc(-c3cnc(N)nc3)c(F)c2)n1 [Example 529, 5-{2′-[(4-Aminopyrimidin-2-yl)oxy]-3-fluorobiphenyl-4-yl}pyrimidin-2-amine] | 36 nM | 90 nM
15 | N#Cc1cccc(COc2ccccc2-c2ccc(-c3cnc(N)cn3)c(F)c2)n1 [Example 530, 6-({[4′-(5-Aminopyrazin-2-yl)-3′-fluorobiphenyl-2-yl]oxy}methyl)pyridine-2-carbonitrile] | 34 nM | 1110 nM
16 | N#Cc1cccnc1COc1ccccc1-c1ccc(-c2cnc(N)cn2)c(F)c1 [Example 531, 2-({[4′-(5-Aminopyrazin-2-yl)-3′-fluorobiphenyl-2-yl]oxy}methyl)pyridine-3-carbonitrile] | 8 nM | 323 nM
17 | N#Cc1cccnc1Oc1ccccc1-c1ccc(-c2cnc(N)cn2)c(F)c1 [Example 532, 2-{[4′-(5-Aminopyrazin-2-yl)-3′-fluorobiphenyl-2-yl]oxy}pyridine-3-carbonitrile] | 6 nM | 32 nM
18 | Nc1cnc(-c2ccc(-c3ccccc3Oc3ccnc(N)n3)cc2F)cn1 [Example 533, 4-{[4′-(5-Aminopyrazin-2-yl)-3′-fluorobiphenyl-2-yl]oxy}pyrimidin-2-amine] | 5 nM | 23 nM
19 | Nc1ncc(-c2ccc(-c3ccccc3Oc3ccnc(N)n3)cc2F)cn1 [Example 534, 4-{[4′-(2-Aminopyrimidin-5-yl)-3′-fluorobiphenyl-2-yl]oxy}pyrimidin-2-amine] | 12 nM | 69 nM

Row | SMILES | Ki [1] | IC50 [2]
20 | Nc1cnc(-c2ccc(-c3ccccc3Oc3cc(N)ncn3)cc2F)cn1 [Example 535, 6-{[4′-(5-Aminopyrazin-2-yl)-3′-fluorobiphenyl-2-yl]oxy}pyrimidin-4-amine] | 1 nM | 17 nM
21 | Nc1cc(Oc2ccccc2-c2ccc(-c3cnc(N)nc3)c(F)c2)ncn1 [Example 536, 5-{2′-[(6-Aminopyrimidin-4-yl)oxy]-3-fluorobiphenyl-4-yl}pyrimidin-2-amine] | 21 nM | 68 nM
22 | N#Cc1cc(Oc2ccccc2-c2ccc(-c3cnc(N)cn3)c(F)c2)ccn1 [Example 537, 4-{[4′-(5-Aminopyrazin-2-yl)-3′-fluorobiphenyl-2-yl]oxy}pyridine-2-carbonitrile] | 3 nM | 42 nM
23 | Nc1cnc(-c2ccc(-c3ccccc3Oc3cc(N4CCC4)ncn3)cc2F)cn1 [Example 539, 5-{2′-[(6-Azetidin-1-ylpyrimidin-4-yl)oxy]-3-fluorobiphenyl-4-yl}pyrazin-2-amine] | 2 nM | 52 nM
24 | Nc1ncc(-c2ccc(-c3ccccc3Oc3cc(N4CCC4)ncn3)cc2F)cn1 [Example 540, 5-{2′-[(6-Azetidin-1-ylpyrimidin-4-yl)oxy]-3-fluorobiphenyl-4-yl}pyrimidin-2-amine] | 16 nM | 85 nM
25 | Cc1nccc(Oc2ccccc2-c2ccc(-c3cnc(N)cn3)c(F)c2)n1 [Example 541, 5-{3-Fluoro-2′-[(2-methylpyrimidin-4-yl)oxy]biphenyl-4-yl}pyrazin-2-amine] | 12 nM | 66 nM
26 | Cc1nccc(Oc2ccccc2-c2ccc(-c3cnc(N)nc3)c(F)c2)n1 [Example 542, 5-{3-Fluoro-2′-[(2-methylpyrimidin-4-yl)oxy]penyl-4-yl}pyrimidin-2-amine] | 107 nM | 311 nM
27 | Fc1cc(-c2ccccc2Oc2ncccn2)ccc1-c1ccc2[nH]cnc2c1 [Example 543, 5-[3-Fluoro-2′-(pyrimidin-2-yloxy)biphenyl-4-yl]-1H-benzimidazole] | 444 nM | 4160 nM
28 | Fc1cc(-c2ccccc2Oc2ncccn2)ccc1-c1cnc2[nH]cnc2c1 [Example 544, 6-[3-Fluoro-2′-(pyrimidin-2-yloxy)biphenyl-4-yl]-3H-imidazo[4,5-b]pyridine] | 28 nM | 1650 nM
29 | Cc1ccnc(Oc2ccccc2-c2ccc(-c3cnc(N)cn3)c(F)c2)n1 [Example 545, 5-{3-Fluoro-2′-[(4-methylpyrimidin-2-yl)oxy]biphenyl-4-yl}pyrazin-2-amine] | 12 nM | 50 nM
30 | Cc1ccnc(Oc2ccccc2-c2ccc(-c3cnc(N)nc3)c(F)c2)n1 [Example 546, 5-{3-Fluoro-2′-[(4-methylpyrimidin-2-yl)oxy]biphenyl-4-yl}pyrimidin-2-amine] | 148 nM | 253 nM
31 | Nc1cnc(-c2ccc(-c3ccccc3Oc3ccnc(C(F)(F)F)n3)cc2F)cn1 [Example 547, 5-(3-Fluoro-2′-{[2-(trifluoromethyl)pyrimidin-4-yl]oxy}biphenyl-4-yl)pyrazin-2-amine] | 35 nM | 104 nM
32 | Nc1ncc(-c2ccc(-c3ccccc3Oc3ccnc(C(F)(F)F)n3)cc2F)cn1 [Example 548, 5-(3-Fluoro-2′-{[2-(trifluoromethyl)pyrimidin-4-yl]oxy}biphenyl-4-yl)pyrimidin-2-amine] | 467 nM | 741 nM
33 | COc1cnc(Oc2ccccc2-c2ccc(-c3cnc(N)cn3)c(F)c2)nc1 [Example 549, 5-{3-Fluoro-2′-[(5-methoxypyrimidin-2-yl)oxy]biphenyl-4-yl}pyrazin-2-amine] | 9 nM | 123 nM
34 | COc1cnc(Oc2ccccc2-c2ccc(-c3cnc(N)nc3)c(F)c2)nc1 [Example 550, 5-{3-Fluoro-2′-[(5-methoxypyrimidin-2-yl)oxy]biphenyl-4-yl}pyrimidin-2-amine] | 2 nM | 16 nM
35 | Nc1ncc(-c2ccc(-c3ccc(C(F)(F)F)cc3Oc3ncccn3)cc2F)cn1 [Example 552, 5-[3-Fluoro-2′-(pyrimidin-2-yloxy)-4′-(trifluoromethyl)biphenyl-4-yl]pyrimidin-2-amine] | 5 nM | 102 nM
36 | Nc1cnc(-c2ccc(-c3ccc(C(F)(F)F)cc3O)cc2F)cn1 [Example 554, 4′-(5-Aminopyrazin-2-yl)-3′-fluoro-4-(trifluoromethyl)biphenyl-2-ol] | 2 nM | 39 nM
37 | Nc1cnc(-c2ccc(-c3ccc(C(F)(F)F)cc3Oc3ccnc(N)n3)cc2F)cn1 [Example 555, 4-{[4′-(5-Aminopyrazin-2-yl)-3′-fluoro-4-(trifluoromethyl)biphenyl-2-yl]oxy}pyrimidin-2-amine] | 2 nM | 24 nM
